The values that follow are results of earlier work, collected in paper PMC9800952 (Asian Journal of Pharmaceutical Sciences, 2022).

For the data set the following is noted: pH 7.

As for `CC(C)OC(=O)CCC/C=C\C[C@@H]1[C@@H](CC[C@@H](O)CCc2ccccc2)[C@H](O)C[C@@H]1O` [latanoprost], the “LogD (pH7)” value is reported as 4.28.
